Results from PubChem BioAssay (NCI).
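Assay format: 96-well plates, 48-hour exposure. TGI is the concentration that stops growth completely.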

Assays:
Test in all cases: inhibition of tumour cell growth, NCI panel, 48 h
[1] = test system: NCI-H460 lung
[2] = test system: KM12 colon
[3] = test system: DU-145 prostate
[4] = test system: OVCAR-8 ovarian
[5] = test system: K-562 leukemia
[6] = test system: UO-31 renal
[7] = test system: TK-10 renal
[8] = test system: HCT-116 colon
[9] = test system: A498 renal
[10] = test system: MDA-MB-231 breast
[11] = test system: SK-OV-3 ovarian
[12] = test system: SK-MEL-2 melanoma
[13] = test system: SF-295 CNS
[14] = test system: SK-MEL-5 melanoma
[15] = test system: OVCAR-4 ovarian
[16] = test system: HOP-62 NSCLC
[17] = test system: UACC-257 melanoma
[18] = test system: HL-60(TB) leukemia
[19] = test system: NCI-H522 lung

SMILES | TGI [1] [µM] | TGI [2] [µM] | TGI [3] [µM] | TGI [4] [µM] | TGI [5] [µM] | TGI [6] [µM] | TGI [7] [µM] | TGI [8] [µM] | TGI [9] [µM] | TGI [10] [µM] | TGI [11] [µM] | TGI [12] [µM] | TGI [13] [µM] | TGI [14] [µM] | TGI [15] [µM] | TGI [16] [µM] | TGI [17] [µM] | TGI [18] [µM] | TGI [19] [µM]
CC1=CC[C@H](C[C@H](C#CCCCC2OCCO2)O[Si](C(C)C)(C(C)C)C(C)C)C(=O)CC1 | > 100 | > 100 | > 100 | > 100 | > 100 | > 100 | > 100 | > 100 | > 100 | > 100 | > 100 | > 100 | > 100 | > 100 | > 100 | > 100 | > 100 | – | –
Cc1cccc(N/C(=C(/C(Cl)=C(Cl)Cl)[N+](=O)[O-])n2nnc3ccccc32)c1 | 45.1 | 29.3 | – | 31.1 | > 100 | 31 | – | 32.9 | 25 | 27.1 | 49.9 | 36.3 | 32 | – | 39.5 | 33.3 | 49.3 | – | –
COC(=O)C(=O)C(C(=O)C(=O)Nc1ccccc1C(N)=O)c1nc2ccc(Cl)cc2[nH]c1=O (centres undefined) | > 100 | > 100 | > 100 | > 100 | > 100 | > 100 | – | > 100 | > 100 | > 100 | > 100 | > 100 | > 100 | > 100 | > 100 | – | > 100 | > 100 | –
COC(=O)c1ccccc1/C=C1\Cc2c(ccc3c2CCC3)C1=O | > 100 | > 100 | > 100 | > 100 | > 100 | > 100 | > 100 | > 100 | > 100 | – | – | > 100 | > 100 | > 100 | > 100 | > 100 | > 100 | > 100 | > 100
CC12CCCC(C(=O)O)(C1)[C@H](C(C)(C)C(=O)O)CC2 (some centres undefined) | > 100 | > 100 | > 100 | > 100 | > 100 | > 100 | > 100 | > 100 | – | – | > 100 | > 100 | > 100 | > 100 | > 100 | > 100 | > 100 | > 100 | > 100
OCC1OC(NC(=S)NCCC(F)(F)C(F)(F)C(F)(F)C(F)(F)C(F)(F)C(F)(F)F)C(O)C(O)C1O (centres undefined) | > 100 | > 100 | > 100 | – | > 100 | > 100 | > 100 | > 100 | 56.6 | > 100 | > 100 | > 100 | > 100 | > 100 | > 100 | > 100 | > 100 | > 100 | –
NC1C/C(=N\O)c2c(Cl)sc(Cl)c21 (centres undefined) | 43.3 | 25.5 | 29 | 28.8 | > 100 | 34.3 | 31.4 | 20.8 | 59.8 | – | > 100 | 36.1 | 91.1 | – | 38.4 | 37 | 31.2 | > 100 | –
COc1ccc(CC2Cc3ccccc3CCN2)cc1OC (centres undefined) | > 50 | > 50 | > 50 | > 50 | > 50 | > 50 | – | > 50 | > 50 | > 50 | > 50 | > 50 | > 50 | – | > 50 | > 50 | > 50 | > 50 | –
COc1cc(C(=O)NNC(=O)c2cc(Br)ccc2NC(=O)c2cccs2)cc(OC)c1OC | 73.6 | > 100 | > 100 | 59.9 | 11.9 | 50.2 | > 100 | 51.5 | 55 | – | 36.5 | 44.9 | 48.9 | 26.7 | 51.4 | 42.2 | 56.9 | 93.6 | 53.3
CCSc1nnc(Sc2c3ccccc3nc3ccccc23)s1 | 42.5 | 77.8 | 30.2 | > 51.5 | > 100 | 23.7 | 15.8 | 23.5 | > 62.4 | 56.6 | > 100 | 56.2 | > 100 | 38.6 | 34.7 | > 100 | 23.6 | – | –
O=S(=O)(/N=S(/Nc1ccccc1)C(Cl)Cl)c1ccccc1 (centres undefined) | > 100 | > 100 | > 100 | > 100 | > 100 | > 100 | > 100 | > 100 | – | > 100 | > 100 | > 100 | > 100 | – | > 100 | > 100 | > 100 | > 100 | –
CCOC(=O)CN=c1nc(SC)sc2c(C(=O)OCC)nc(Sc3ccccc3)n12 | – | > 100 | – | > 100 | > 100 | > 100 | > 100 | > 100 | – | – | > 100 | > 100 | – | > 100 | > 100 | > 100 | > 100 | > 100 | 74.3
CC[C@]12C=CCN3CC[C@@]4(c5cc(Br)c(OC)c([N+](=O)[O-])c5N(C)[C@H]4[C@@](O)(C(=O)OC)[C@@H]1OC(C)=O)[C@@H]32 | > 100 | > 100 | > 100 | > 100 | > 100 | > 100 | > 100 | > 100 | > 100 | > 100 | > 100 | > 100 | > 100 | > 100 | > 100 | > 100 | > 100 | > 100 | –
CC(C)CCCC(C)[C@H]1CC[C@H]2n3c(nnc3-c3ccccc3)CCC[C@]12C (some centres undefined) | 24.1 | > 100 | 83 | 67.2 | 13.6 | 23.2 | 57.2 | 40.4 | 31.8 | 37.9 | 26.9 | 29.8 | 21.9 | 25.1 | 32.5 | 37.5 | 26.9 | 16.2 | –
COC(=O)c1ccccc1/C=C1\Cc2c(C)c3c(c(C)c2C1=O)CCC3 | > 100 | > 100 | > 100 | > 100 | > 100 | > 100 | > 100 | > 100 | > 100 | – | – | > 100 | > 100 | > 100 | > 100 | > 100 | > 100 | > 100 | > 100
Cc1ccc(-c2c(C#N)c(-c3ccccc3)n(NS(=O)(=O)c3ccc(C)cc3)c(=O)c2C#N)cc1 | > 100 | > 100 | – | > 100 | > 100 | – | > 100 | > 100 | > 100 | > 100 | > 100 | > 100 | > 100 | 62.5 | > 100 | > 100 | > 100 | – | > 100
O=C(/C=C/c1cccc([N+](=O)[O-])c1)N1CCN(CCOC(c2ccccc2)c2ccccc2)CC1 | > 100 | 87.8 | > 100 | > 100 | 50.7 | > 100 | 47.7 | 51.8 | > 100 | – | > 100 | – | > 100 | 28.2 | > 100 | > 100 | 89.2 | – | > 100
CC1(n2nc(-c3ccccc3)n(-c3ccccc3)c2=O)CSC1 | > 100 | > 100 | – | > 100 | > 100 | > 100 | > 100 | > 100 | > 100 | – | > 100 | > 100 | > 100 | > 100 | > 100 | > 100 | > 100 | > 100 | > 100
COc1ccc(NC(=S)Nc2cc(C)ccn2)cc1 | > 100 | > 100 | > 100 | > 100 | > 100 | > 100 | > 100 | > 100 | > 100 | > 100 | – | > 100 | – | > 100 | > 100 | > 100 | > 100 | > 100 | –
Cc1cn(C2OC(CO[Si](C)(C)C(C)(C)C)/C(=C\C#N)C2O[Si](C)(C)C(C)(C)C)c(=O)[nH]c1=O (centres undefined) | > 100 | > 100 | > 100 | – | > 100 | > 100 | > 100 | > 100 | > 100 | > 100 | > 100 | 37.1 | 83.5 | > 100 | > 100 | > 100 | > 100 | – | –
Cc1noc(C)c1CCCOC1COc2ccccc2OCCOCCOc2ccccc2OC1 | – | > 100 | – | > 100 | > 100 | > 100 | > 100 | – | > 100 | – | > 100 | > 100 | > 100 | > 100 | > 100 | > 100 | > 100 | > 100 | > 100
